Reference: publication PMC7946679, “Selective cytotoxicity of epidithiodiketopiperazine DC1149B, produced by marine-derived Trichoderma lixii on the cancer cells adapted to glucose starvation” (Journal of Natural Medicines, 2019)
In brackets after ≈: the same amount, converted by molar mass.

Columns and labels:
[1] = test system: human pancreatic carcinoma PANC-1 cells; assay: Cytotoxicity (WST-8) against PANC-1 cells in Glucose Deficient or General Glucose Medium; type: cell-based; conditions: for IC50: Homo sapiens; for IC50 / IC50 Glucose (−): PANC-1 cells, 12 h with sample, WST-8; for S.I. (Selective index): IC50 General Glucose Medium versus IC50 Glucose Deficient Medium, PANC-1
Description: Human pancreatic carcinoma cell line PANC-1 was maintained in the DMEM supplemented with heat-inactivated 10% FBS and kanamycin (50 µg/ml) in a humidified atmosphere with 5% CO2 at 37 °C. To induce nutrient starvation, PANC-1 cells were cultured in the Glucose Deficient Medium [Basal Medium (25 mM HEPES buffer (pH 7.4) supplemented with 6.4 g/l NaCl, 700 mg/l NaHCO3, 400 mg/l KCl, 265 mg/l CaCl2·2H2O, 200 mg/l MgSO4·7H2O, 125 mg/l NaH2PO4, 0.1 mg/l Fe(NO3)·9H2O, 15 mg/l Phenol red, 10 mL/l MEM vitamin solution (X100) (GIBCO, Carlsbad, CA), 200 mmol/l L-glutamine solution (GIBCO, Carlsbad, CA), and 25 mg/l kanamycin) containing 10% dialyzed FBS]. The General Glucose Medium [Basal Medium supplemented with 10% FBS and […] glucose (final 25 mM)] was also used for control cells.
The bioassay was carried out according to a method described previously. Briefly, PANC-1 cells (1 × 10^4 cells/100 µl in 96 well plastic plate) were pre-incubated in the DMEM supplemented with 10% FBS for 24 h. The medium was then replaced with either the General Glucose Medium or Glucose Deficient Medium to induce cells adaption to the nutrient starvation. After 12-h incubation, the serially diluted samples were added, and the cells were incubated for an additional 12 h in a humidified atmosphere with 5% CO2 at 37 °C. The cell proliferation was detected using the WST-8 colorimetric reagent. The IC50 value was determined by linear interpolation from the growth inhibition curve. We assessed the selectivity of the cytotoxic activity (Selective Index, S.I.) based on the difference in the IC50 values obtained for experiments with General Glucose Media and Glucose Deficient Media.

PANC-1 cells = assay: Oxygen consumption rate of PANC-1 cells (OCR Assay Kit); type: cell-based, human; conditions: PANC-1 cells in General Glucose Medium, phosphorescent probe, 180 min
Description: Oxygen consumption rate of PANC-1 cells was assayed using OCR Assay Kit (Cayman Chemical, Ann Arbor, MI, USA) as per the manufacturer’s instructions. Briefly, pre-cultured PANC-1 cells (8.0 × 10^4 cells) in the black, clear bottom 96-well plate (Corning Incorporated, NY, USA) were incubated with General Glucose Medium for 18 h at 37 °C. The cells were replenished with 140 µl of fresh medium, and the test compound was added. This was followed by adding the phosphorescent probe to measure the oxygen consumption. 100 µl of mineral oil was added in each well to restrict oxygen diffusion. The signals were measured by an Infinite M1000 microplate reader (Tecan Group Ltd., Mannedorf, Switzerland) using time-resolved mode at Ex 380 nm and Em 650 nm for 180 min with 1-min time interval. The linear regression was applied after subtracting the blank, and the oxygen consumption rate was indicated by the slope of each signal profile.

mitochondrial Complex II = target: T1, mitochondrial Complex II (Bos taurus, UniProt P31039+P35720+Q3T189+Q95123); assay: Mito Check Complex Activity Assay Kit, complex II; type: biochemical; conditions: mitochondrial electron transport chain
T1 construct: purchased Cayman Chemical
Source text: (§1) Dulbecco’s Modified Eagle’s medium (DMEM), WST-8 colorimetric reagent, and KCN were purchased from Nacalai Tesque, Inc. (Kyoto, Japan). Fetal bovine serum (FBS) and Dialyzed FBS were purchased from Equitech-Bio Inc. (Kerrville, TX, USA) and Thermo Fisher Scientific Inc. (Waltham, MA, USA), respectively. Anti-Akt, Anti-phosphorylated Akt, anti-GRP78, and anti-β-actin antibodies were obtained from Cell Signaling Technology, Inc. (Danvers, MA, USA). Horseradish peroxidase (HRP)-linked anti-rabbit IgG antibody (GE Healthcare Life Sciences, Buckinghamshire, UK) was used as secondary antibody. Mito Check Complex Activity Assay Kit (Cayman Chemical, Ann Arbor, MI, USA) was used to evaluate the effect of compound 1 on the mitochondrial complex I–V. Oxygen consumption of cells was measured by Oxygen Consumption Rate (OCR) Assay Kit (Cayman Chemical, Ann Arbor, MI, USA). Rotenone, thenoyltrifluoroacetone (TTFA), carbonyl cyanide m-chlorophenylhydrazone (CCCP), antimycin A, and oligomycin A were obtained from Tokyo Chemical Industry Co., LTD. […]
(§2) Antimycin A is a known inhibitor of complex III in the mitochondrial electron transport chain [17]. […] We also evaluated the effect of compound 1 on the oxygen consumption of PANC-1 cells cultured in the Glucose Deficient Medium.

mitochondrial Complex IV = mitochondrial Complex IV (Bos taurus, UniProt P00396+P68530); assay: Mito Check Complex Activity Assay Kit, complex IV; type: biochemical; conditions: mitochondrial electron transport chain
Source text: as §1, §2

mitochondrial Complex I = mitochondrial Complex I (Bos taurus, UniProt P03887+P17694+P42026); assay: biochemical; conditions: mitochondrial electron transport chain
[2] = test system: rat adrenal pheochromocytoma cell line PC12; conditions: PC12 cells, cited from earlier work
[3] = test system: human leukemic Jurkat cell line; conditions: read-out: IC50 cytotoxicity Jurkat; cited from earlier work
GRP78 = assay: Western blotting, induction of GRP78 in PANC-1 cells; type: cell-based, human; conditions: PANC-1 in Glucose Deficient Medium, lowest test concentration 0.02 µM, 12 h, western blot
Description: (§3) PANC-1 cells (3 × 10^5 cells/2 ml in 6-well plastic plate) were pre-incubated in the DMEM supplement with 10% FBS for 24 h. The medium was then replaced with either General Glucose or Glucose Deficient Medium. […] Subsequently, the cells were rinsed with ice-cold PBS and lysed in the lysis buffer [50 mM Tris–HCl (pH 8.0) containing 150 mM NaCl, 5 mM EDTA, 1% glycerol, 1% NP-40, 1% protease inhibitor cocktail, and 1% phosphatase inhibitor cocktail]. The cell lysate was analyzed by SDS-PAGE and transferred onto PVDF membranes (GE Healthcare Life Sciences Buckinghamshire, UK). The membranes were then incubated with appropriate primary antibodies followed by HRP-conjugated secondary antibodies, and the immunopositive bands were visualized using an ECL kit (GE Healthcare Life Sciences). The luminescent signals were analyzed using an Image Quant LAS4010 Scanner (GE Healthcare Life Sciences).

[4] = target: mitochondrial Complex II/III (Bos taurus, UniProt P00125+P00157+P13272); assay: Mito Check Complex Activity Assay Kit, complex II/III; type: biochemical; conditions: mitochondrial electron transport chain
Source text: as §1, §2

[5] = test system: Akt and phosphorylated Akt; assay: Western blotting, Akt signaling in PANC-1 cells; type: cell-based, human; conditions: PANC-1 in Glucose Deficient Medium, 0.02–0.3 µM, 12 h, western blot
Description: as §3

mitochondrial Complex V = mitochondrial Complex V (Bos taurus, UniProt P00829+P00847+P19483+P32876); assay: Mito Check Complex Activity Assay Kit, complex V; type: biochemical; conditions: mitochondrial electron transport chain
Source text: as §1, §2

[6] = test system: human cervix epithelioid carcinoma HeLa cells; conditions: cited from earlier work

T1 sequence (P31039 44-665): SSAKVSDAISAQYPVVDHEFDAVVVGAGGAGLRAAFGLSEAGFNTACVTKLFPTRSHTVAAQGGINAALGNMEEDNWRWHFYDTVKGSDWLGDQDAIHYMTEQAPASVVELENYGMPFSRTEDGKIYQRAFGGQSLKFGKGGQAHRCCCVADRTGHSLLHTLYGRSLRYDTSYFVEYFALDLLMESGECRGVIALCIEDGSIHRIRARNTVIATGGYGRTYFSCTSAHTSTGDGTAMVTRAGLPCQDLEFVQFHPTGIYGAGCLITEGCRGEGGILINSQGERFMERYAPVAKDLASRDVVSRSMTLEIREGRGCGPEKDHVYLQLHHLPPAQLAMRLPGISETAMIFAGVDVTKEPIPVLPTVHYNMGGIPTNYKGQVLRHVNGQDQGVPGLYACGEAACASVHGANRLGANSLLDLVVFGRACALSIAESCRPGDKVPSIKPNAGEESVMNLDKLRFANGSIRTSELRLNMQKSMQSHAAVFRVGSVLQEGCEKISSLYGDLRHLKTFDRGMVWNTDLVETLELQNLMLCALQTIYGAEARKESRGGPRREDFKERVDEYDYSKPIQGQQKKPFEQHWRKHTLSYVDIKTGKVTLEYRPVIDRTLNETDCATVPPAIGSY
T1 sequence (Q3T189 29-280): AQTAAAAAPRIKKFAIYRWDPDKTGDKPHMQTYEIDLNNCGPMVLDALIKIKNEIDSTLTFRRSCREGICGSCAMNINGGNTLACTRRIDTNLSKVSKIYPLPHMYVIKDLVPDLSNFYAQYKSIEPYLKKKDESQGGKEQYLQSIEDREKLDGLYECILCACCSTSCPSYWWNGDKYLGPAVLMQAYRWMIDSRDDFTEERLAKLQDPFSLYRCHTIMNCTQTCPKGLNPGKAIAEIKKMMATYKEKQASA
T1 sequence (P35720 30-169): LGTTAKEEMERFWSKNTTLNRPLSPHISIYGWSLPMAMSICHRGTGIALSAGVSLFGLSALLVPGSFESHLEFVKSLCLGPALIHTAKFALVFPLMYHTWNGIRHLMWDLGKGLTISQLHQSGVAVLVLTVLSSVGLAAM
T1 sequence (Q95123 56-158): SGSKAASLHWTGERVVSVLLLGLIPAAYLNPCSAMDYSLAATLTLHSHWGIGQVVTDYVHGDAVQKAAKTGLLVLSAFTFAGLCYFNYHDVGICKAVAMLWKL

CCCCCC[C@H]1C(=O)O[C@H](C)[C@H](NC(=O)c2cccc(NC=O)c2O)C(=O)O[C@@H](C)[C@@H]1OC(=O)CC(C)C [Antimycin A, reference compound]
IC50 ([1]; Glucose Deficient Medium): 0.0003 µM | S.I. (Selective index) [1]: 960,000 | oxygen consumption of PANC-1 cells (PANC-1 cells): inhibited the oxygen consumption

COc1ccc(C2SSC34CC5(O)C(Cl)C=CC(O)C5ON3C(=O)C2NC4=O)c(O)c1OC (stereo not drawn) [Compound 1, DC1149B]
IC50 ([1]; General Glucose Medium): 710 µM | IC50 ([1]; Glucose Deficient Medium): 0.02 µM | oxygen consumption of PANC-1 cells (PANC-1 cells): inhibited the oxygen consumption | IC50 (mitochondrial Complex II): 19 µM | IC50 (mitochondrial Complex IV): > 30 µM | IC50 (mitochondrial Complex I): > 30 µM | IC50 cytotoxic activity PC12 [2]: 21.9 µg/mL (≈ 42.4 µM) | IC50 ([2]; read-out: IC50 cytotoxic activity PC12): 42.4 µM | IC50 [3]: 5.1 µM | expression of GRP78 (GRP78): decreased the expression of GRP78 in the nutrient-starved cells to the basal level | IC50 [4]: > 30 µM | levels of Akt and phosphorylated Akt [5]: reduced the levels of Akt and phosphorylated Akt in the nutrient-starved cells in a dose-dependent manner | IC50 (mitochondrial Complex V): > 30 µM | IC50 cytotoxic activity HeLa [6]: 50.1 µg/mL (≈ 96.9 µM) | IC50 ([6]; read-out: IC50 cytotoxic activity HeLa): 97.1 µM

O=C(CC(=O)C(F)(F)F)c1cccs1 [thenoyltrifluoroacetone, reference compound]
IC50 (mitochondrial Complex II): 65 µM

COc1ccc2cc(NC(=O)C3=NO[C@H]4[C@H](O)C=C[C@@H](O)[C@@]4(O)C3)c(=O)oc2c1OC [Compound 2, trichodermamide A]
IC50 ([1]; General Glucose Medium): > 1000 µM | IC50 ([1]; Glucose Deficient Medium): 270 µM | S.I. (Selective index) [1]: > 3.7 | IC50 Glucose (−) ([1]; Glucose Deficient Medium): very weak

COc1ccc2cc(NC(=O)C34CC5(O)C(C=CC(O)C5ON3)S4)c(=O)oc2c1OC (stereo not drawn) [Compound 3, aspergillazine A]
IC50 ([1]; General Glucose Medium): > 1000 µM | IC50 ([1]; Glucose Deficient Medium): > 1000 µM | IC50 Glucose (−) ([1]; Glucose Deficient Medium): very weak

N#CC(C#N)=NNc1cccc(Cl)c1 [CCCP, carbonyl cyanide m-chlorophenylhydrazone]
oxygen consumption of PANC-1 cells (PANC-1 cells): showed the opposite effect to antimycin A
